PubChem BioAssay (NCI)
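Grown in 96-well plates, cells were treated for 48 hours with each compound at five concentrations. Insufficient inhibition: endpoint recorded as highest concentration tested. At the GI50, growth is halved. The concentration for full growth arrest is given as TGI.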

Key:
Test in all cases: NCI tumour cell line growth inhibition, 48 h
[1] = system: KM12 colon
[2] = system: ACHN renal
[3] = system: DU-145 prostate
[4] = system: NCI-H23 lung
[5] = system: NCI-H460 lung
[6] = system: 786-0 renal
[7] = system: SF-268 CNS
[8] = system: K-562 leukemia
[9] = system: BT-549 breast
[10] = system: RPMI-8226 leukemia
[11] = system: HOP-92 NSCLC
[12] = system: A549 NSCLC
[13] = system: MCF7 breast
[14] = system: UACC-257 melanoma
[15] = system: TK-10 renal
[16] = system: UACC-62 melanoma
[17] = system: OVCAR-5 ovarian
[18] = system: M14 melanoma
[19] = system: SW-620 colon
[20] = system: COLO 205 colon
[21] = system: HL-60(TB) leukemia
[22] = system: OVCAR-3 ovarian
[23] = system: HOP-62 NSCLC
[24] = system: HCT-116 colon
[25] = system: HS 578T breast
[26] = system: OVCAR-8 ovarian
[27] = system: CAKI-1 renal
[28] = system: SF-539 CNS
[29] = system: MDA-MB-435
[30] = system: SK-MEL-5 melanoma
[31] = system: SN12C renal
[32] = system: T-47D breast
[33] = system: MDA-MB-231 breast
[34] = system: SNB-19 CNS
[35] = system: EKVX NSCLC
[36] = system: U251 CNS
[37] = system: SK-OV-3 ovarian
[38] = system: PC-3 prostate
[39] = system: LOX IMVI melanoma
[40] = system: SF-295 CNS
[41] = system: UO-31 renal
[42] = system: HCT-15 colon
[43] = system: NCI/ADR-RES ovarian

CCSc1nc2[nH]c(=S)[nH]c(=S)c2c(-c2ccc(OC)c(OC)c2)c1C#N
GI50 [1]: 21.9 µM | TGI [1]: > 50 µM | GI50 [2]: 17.2 µM | TGI [2]: > 50 µM | GI50 [3]: 21.8 µM | TGI [3]: > 50 µM | GI50 [4]: 18.6 µM | TGI [4]: > 50 µM | GI50 [5]: 21 µM | TGI [5]: > 50 µM | GI50 [6]: 16.5 µM | TGI [6]: > 50 µM | GI50 [7]: 15.9 µM | TGI [7]: 46.4 µM | GI50 [8]: 9.68 µM | TGI [8]: 24.3 µM | GI50 [9]: 14.6 µM | TGI [9]: 46.8 µM | GI50 [10]: 16.8 µM | TGI [10]: > 50 µM | GI50 [11]: 19 µM | TGI [11]: > 50 µM | GI50 [12]: 14.8 µM | TGI [12]: > 50 µM | GI50 [13]: 22.1 µM | TGI [13]: > 50 µM | GI50 [14]: 16.5 µM | TGI [14]: 43.7 µM | GI50 [15]: 43.5 µM | TGI [15]: > 50 µM | GI50 [16]: 14.3 µM | TGI [16]: > 50 µM | GI50 [17]: > 50 µM | TGI [17]: > 50 µM | GI50 [18]: 15.2 µM | TGI [18]: > 50 µM | GI50 [19]: 26.5 µM | TGI [19]: > 50 µM | GI50 [20]: 14.2 µM | TGI [20]: 45.2 µM | GI50 [21]: 16.1 µM | TGI [21]: > 50 µM | GI50 [22]: 11 µM | TGI [22]: 34.6 µM | GI50 [23]: 19.8 µM | TGI [23]: > 50 µM | GI50 [24]: 18.2 µM | TGI [24]: > 50 µM | GI50 [25]: 13.2 µM | TGI [25]: 45.8 µM | GI50 [26]: 18.9 µM | TGI [26]: > 50 µM | GI50 [27]: 17.4 µM | TGI [27]: > 50 µM | GI50 [28]: 14.8 µM | TGI [28]: 35.4 µM | GI50 [29]: 10.5 µM | TGI [29]: 42.5 µM | GI50 [30]: 6.86 µM | TGI [30]: 21.5 µM | GI50 [31]: 16.9 µM | TGI [31]: > 50 µM | GI50 [32]: 23.5 µM | TGI [32]: > 50 µM | GI50 [33]: 9.75 µM | TGI [33]: 40.3 µM | GI50 [34]: 21.4 µM | TGI [34]: > 50 µM | GI50 [35]: 17 µM | TGI [35]: > 50 µM | GI50 [36]: 17.8 µM | TGI [36]: > 50 µM | GI50 [37]: 21.1 µM | TGI [37]: > 50 µM | GI50 [38]: 22.6 µM | TGI [38]: > 50 µM | GI50 [39]: 14.5 µM | TGI [39]: > 50 µM | GI50 [40]: 18.9 µM | TGI [40]: > 50 µM | GI50 [41]: 11.7 µM | TGI [41]: 36 µM | GI50 [42]: 16.5 µM | TGI [42]: > 50 µM | GI50 [43]: 14.7 µM | TGI [43]: 32.8 µM
